According to the NIST ThermoML archive (doi:10.1016/j.jct.2017.06.006):
Numbers after ± are expanded uncertainties.

Assay: mn = molality of the nth substance listed, in mol/kg
Details: 100 kPa, Liquid, Vibrating tube method

O [water] + N[C@@H](Cc1ccccc1)C(=O)O
Details	mass density [kg/m3]
283.15 K, m2 = 0	999.72 ± 0.3

CCCCn1cc[n+](C)c1C.[Br-] [1-butyl-2,3-dimethylimidazolium bromide] + O
m1 = 0.1
Details	mass density [kg/m3]
283.15 K	1004.75 ± 0.36
288.15 K	1004.08 ± 0.36
293.15 K	1003.12 ± 0.36
298.15 K	1001.89 ± 0.36
303.15 K	1000.44 ± 0.36

O [water] + CCCCn1cc[n+](C)c1C.[Br-]
Details	mass density [kg/m3]
283.15 K, m2 = 0	999.72 ± 0.36

N[C@@H](Cc1ccccc1)C(=O)O [L-phenylalanine] + O
mass density [kg/m3]
Details	m1 = 0.0102	m1 = 0.0203	m1 = 0.0293	m1 = 0.0398	m1 = 0.0509	m1 = 0.0606	m1 = 0.061	m1 = 0.0736	m1 = 0.0915	m1 = 0.1028
283.15 K	1000.19 ± 0.3	1000.64 ± 0.3	1001.05 ± 0.3	1001.53 ± 0.3	1002.02 ± 0.3	1002.47 ± 0.3	1002.49 ± 0.3	1003.05 ± 0.3	1003.87 ± 0.3	1004.36 ± 0.3
288.15 K	999.59 ± 0.3	1000.04 ± 0.3	1000.44 ± 0.3	1000.91 ± 0.3	1001.39 ± 0.3	1001.83 ± 0.31	1001.85 ± 0.3	1002.4 ± 0.3	1003.2 ± 0.3	1003.69 ± 0.3
293.15 K	998.69 ± 0.3	999.13 ± 0.3	999.52 ± 0.3	999.98 ± 0.3	1000.46 ± 0.3	1000.9 ± 0.31	1000.91 ± 0.3	1001.45 ± 0.3	1002.24 ± 0.3	1002.73 ± 0.3
298.15 K	997.52 ± 0.3	997.95 ± 0.3	998.35 ± 0.3	998.8 ± 0.3	999.27 ± 0.3	999.7 ± 0.31	999.71 ± 0.3	1000.25 ± 0.3	1001.03 ± 0.3	1001.5 ± 0.3
303.15 K	996.12 ± 0.3	996.54 ± 0.3	996.93 ± 0.3	997.38 ± 0.3	997.85 ± 0.3	998.27 ± 0.3	998.28 ± 0.3	998.81 ± 0.3	999.58 ± 0.3	1000.05 ± 0.3
